We go through twelve compounds from patent US20260109690A1, “HDAC6 INHIBITORS AND METHOD OF THEIR USE” (Baerenkraft Therapeutics, LLC., priority 2024, published 2026).

Structures are written as SMILES.

The test system of assay [1] is acetyl-α-tubulin in SH-SY5Y neuroblastoma cells. Kind of assay: Western blot of acetylated alpha-tubulin in SH-SY5Y neuroblastoma cells. It counts as cell-based. To be noted: 1 μM and 10 μM, 24 hours. Here is the method: SH-SY5Y neuroblastoma cells were seeded at 1,000,000 cells/well of three 6-well plates and incubated for 24 hours. Cells were treated with 2 control and experimental HDAC6 inhibitors at 1 μM and 10 μM for 24-hours. Following treatment, cells were lysed, and proteins extracted for western blot. Proteins were separated by gel electrophoresis and transferred to nitrocellulose membranes. Membranes were blocked and probed with primary Abs overnight.
acetyl-α-tubulin (Lys40)(D20G3); Cell Signaling Technologies, #5335S
GAPDH; Millipore Sigma, #MAB374
Membranes were probed with secondary Abs for 1 hour and then the blots were imaged using the iBright 1500 (ThermoFisher)

A further assay has as its target T1, HDAC6 (Homo sapiens, UniProt Q9UBN7).
T1 sequence (Q9UBN7 1-1215): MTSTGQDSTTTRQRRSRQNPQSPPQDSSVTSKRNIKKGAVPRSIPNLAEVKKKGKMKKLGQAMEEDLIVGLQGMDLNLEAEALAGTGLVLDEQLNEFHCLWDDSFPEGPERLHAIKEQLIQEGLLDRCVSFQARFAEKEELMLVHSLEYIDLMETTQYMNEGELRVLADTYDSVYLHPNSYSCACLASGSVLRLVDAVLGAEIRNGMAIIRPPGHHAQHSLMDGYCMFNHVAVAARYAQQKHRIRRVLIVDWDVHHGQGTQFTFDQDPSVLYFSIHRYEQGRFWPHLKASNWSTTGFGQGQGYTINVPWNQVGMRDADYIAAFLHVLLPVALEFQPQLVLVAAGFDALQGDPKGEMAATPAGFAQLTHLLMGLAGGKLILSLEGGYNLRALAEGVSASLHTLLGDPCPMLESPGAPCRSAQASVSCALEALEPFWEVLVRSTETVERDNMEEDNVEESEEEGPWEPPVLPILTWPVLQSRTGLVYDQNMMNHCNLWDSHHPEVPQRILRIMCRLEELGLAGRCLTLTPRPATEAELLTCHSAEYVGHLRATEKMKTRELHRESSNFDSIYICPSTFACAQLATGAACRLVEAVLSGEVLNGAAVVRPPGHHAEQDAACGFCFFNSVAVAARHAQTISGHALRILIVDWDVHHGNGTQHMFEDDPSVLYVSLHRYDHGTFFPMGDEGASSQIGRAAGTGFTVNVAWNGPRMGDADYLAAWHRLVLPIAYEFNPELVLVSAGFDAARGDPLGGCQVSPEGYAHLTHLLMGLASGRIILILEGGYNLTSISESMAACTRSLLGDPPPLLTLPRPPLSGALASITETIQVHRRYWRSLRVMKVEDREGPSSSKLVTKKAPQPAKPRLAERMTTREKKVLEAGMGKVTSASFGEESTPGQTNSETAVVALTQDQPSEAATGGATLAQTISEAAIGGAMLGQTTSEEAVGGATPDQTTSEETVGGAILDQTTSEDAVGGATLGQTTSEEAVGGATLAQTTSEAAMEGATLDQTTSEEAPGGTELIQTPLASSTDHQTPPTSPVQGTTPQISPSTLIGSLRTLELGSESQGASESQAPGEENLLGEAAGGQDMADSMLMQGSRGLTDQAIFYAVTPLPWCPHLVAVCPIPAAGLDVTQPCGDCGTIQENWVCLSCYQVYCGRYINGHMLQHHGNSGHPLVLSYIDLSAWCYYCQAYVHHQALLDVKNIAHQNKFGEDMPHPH
Kind of assay: Biochemical HDAC6 inhibitory activity assay. To be noted: read-out: HDAC6 IC50.

The subject of assay [2] is acetyl-α-tubulin in SH-SY5Y neuroblastoma cells. Description: ICC dose response of acetylated alpha-tubulin in SH-SY5Y neuroblastoma cells. It counts as cell-based. To be noted: Homo sapiens, 24 h, read-out: IC50 (acetyl-α-tubulin average fluorescence intensity). Here is the method:
Cell Seeding: Seeded at 2,000 cells/well in 384-well plates 24-hours prior to compound treatment
Compound Treatment: 24-hour
HDAC6 inhibitor compounds tested (1 control and 6 experimental)
9-point dose-response curves for all compounds, starting at 30 μM with 3-fold serial dilutions
4 technical replicate wells per condition tested
Cells were seeded in 90 μL media. 10 μL of 10× compound solutions added to 90 μL media for 24-hours
Fixation: 4% PFA for 15 minutes (after removing all media and washing with DPBS+0.1% Tween-20)
Permeabilization: 0.1% Triton X-100 for 20 minutes
Primary antibody: acetyl-α-tubulin (Lys40/D20G3; Cell Signaling Technologies, #5335S) 1:1000 dilution in DPBS+5% goat serum+0.1% Tween-20, 1 hour at room temp on orbital shaker
Secondary antibody: Goat anti-Rabbit IgG (H+L) Highly Cross-Adsorbed Secondary Antibody, Alexa Fluor™ Plus 488, Catalog #A32731, 1:1000 dilution+Hoechst 33342, 1:10,000 dilution in DPBS+5% goat serum+0.1% Tween-20, 1 hour at room temp on orbital shaker
High-content imaging system: Image Xpress Micro Confocal from Molecular Devices […]
Integrated fluorescence intensity of acetyl-α-tubulin was calculated using an automated image-analysis algorithm in Meta Xpress software
Average intensity per cell was calculated by dividing the integrated fluorescence intensity by the number of nuclei. […]

The target of the next assay is T2, HDAC10 (Homo sapiens, UniProt Q969S8).
T2 sequence (Q969S8 1-669): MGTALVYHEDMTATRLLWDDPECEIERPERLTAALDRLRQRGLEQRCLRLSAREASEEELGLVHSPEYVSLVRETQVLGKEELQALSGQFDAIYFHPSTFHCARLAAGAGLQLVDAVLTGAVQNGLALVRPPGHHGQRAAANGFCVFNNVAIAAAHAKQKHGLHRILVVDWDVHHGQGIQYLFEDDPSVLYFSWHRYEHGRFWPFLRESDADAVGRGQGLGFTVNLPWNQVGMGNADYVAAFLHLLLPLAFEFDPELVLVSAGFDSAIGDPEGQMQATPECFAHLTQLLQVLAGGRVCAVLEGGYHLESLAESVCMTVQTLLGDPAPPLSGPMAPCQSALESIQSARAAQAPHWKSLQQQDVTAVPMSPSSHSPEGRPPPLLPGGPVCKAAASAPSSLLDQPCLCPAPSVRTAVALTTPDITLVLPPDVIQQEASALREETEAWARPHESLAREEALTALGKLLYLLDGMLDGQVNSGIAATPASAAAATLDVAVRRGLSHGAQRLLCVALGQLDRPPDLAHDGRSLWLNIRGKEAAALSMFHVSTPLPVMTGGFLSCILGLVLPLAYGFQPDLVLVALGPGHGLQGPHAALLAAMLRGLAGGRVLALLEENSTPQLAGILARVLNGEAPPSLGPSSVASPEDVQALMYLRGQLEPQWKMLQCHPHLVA
Description: HDAC selectivity panel: HDAC10. It counts as biochemical.

As for `CN1CCN(Cc2ccc(Nc3nccc(-c4ccc(C(=O)NO)cc4)n3)cc2F)CC1` [Compound I-7, 4-(2-((3-fluoro-4-((4-methylpiperazin-1-yl)methyl)phenyl)amino)pyrimidin-4-yl)-N-hydroxybenzamide], the “acetylation of α-tubulin (Western blot)” value in assay [1] was “induce acetylation of α-tubulin in SH-SY5Y neuroblastoma cells in a dose-dependent manner”. In addition, the IC50 on HDAC6 is under 1000 nM. Taken in the same sequence, the figures for `O=C(NO)c1ccc(-c2ccnc(Nc3ccc(CN4CCN(C5COC5)CC4)c(F)c3)n2)cc1` [Compound I-9, 4-(2-((3-fluoro-4-((4-(oxetan-3-yl)piperazin-1-yl)methyl)phenyl)amino)pyrimidin-4-yl)-N-hydroxybenzamide] were “induce acetylation of α-tubulin in SH-SY5Y neuroblastoma cells in a dose-dependent manner” and under 1000 nM. For `O=C(NO)c1ccc(-c2ccnc(N3CCC4(CC3)COC4)n2)cc1` [Compound I-25, 4-(2-(2-oxa-7-azaspiro[3.5]nonan-7-yl)pyrimidin-4-yl)-N-hydroxybenzamide], the “acetylation of α-tubulin (Western blot)” value in assay [1] is “induce acetylation of α-tubulin in SH-SY5Y neuroblastoma cells in a dose-dependent manner”. Besides, the IC50 on HDAC6 is under 1000 nM. In the same order, the values of `O=C1NCC2(CCN(c3nccc(-c4ccc(C(=O)NO)cc4)n3)CC2)O1` [Compound I-26, N-hydroxy-4-(2-(2-oxo-1-oxa-3,8-diazaspiro[4.5]decan-8-yl)pyrimidin-4-yl)benzamide] are “induce acetylation of α-tubulin in SH-SY5Y neuroblastoma cells in a dose-dependent manner” and under 1000 nM. Taken in the same sequence, the figures for `O=C(NO)c1ccc(-c2ccnc(N3CCC(F)(F)CC3)n2)cc1` [Compound I-27, 4-(2-(4,4-difluoropiperidin-1-yl)pyrimidin-4-yl)-N-hydroxybenzamide] were “induce acetylation of α-tubulin in SH-SY5Y neuroblastoma cells in a dose-dependent manner” and under 1000 nM. On to `C[C@H]1CN(c2ccc(Nc3nccc(-c4ccc(-c5nnc(C(F)F)o5)cn4)n3)cc2F)CCO1` [Compound I-38, (S)-4-(5-(5-(difluoromethyl)-1,3,4-oxadiazol-2-yl)pyridin-2-yl)-N-(3-fluoro-4-(2-methylmorpholino)phenyl)pyrimidin-2-amine], for which, at HDAC6, the IC50 was 1000 to 10000 nM. Take `O=C(CCCCCCNC(=O)c1cnc(N(c2ccccc2)c2ccccc2)nc1)NO` [ACY-1215, ricolinostat, reference compound]: the IC50 in assay [2] was 1780 nM. Consider `CCNNC(=O)c1ccc(-c2nc(N3CCC4(CC3)COC4)ncc2Cl)cc1` [Compound I-24, 4-(5-chloro-2-(2-oxa-7-azaspiro[3.5]nonan-7-yl)pyrimidin-4-yl)-N′-ethylbenzohydrazide], for which, on HDAC6, the IC50 was over 100000 nM. With `CCNNC(=O)c1ccc(-c2ccnc(N3CCC4(CC3)COC4)n2)cc1` [Compound I-23, 4-(2-(2-oxa-7-azaspiro[3.5]nonan-7-yl)pyrimidin-4-yl)-N′-ethylbenzohydrazide], the IC50 at HDAC6 was under 1000 nM. Take `C[C@H]1CN(Cc2ccc(Nc3nccc(-c4ccc(-c5nnc(C(F)F)o5)cc4)n3)cc2F)CCO1` [Compound I-30, (S)-4-(4-(5-(difluoromethyl)-1,3,4-oxadiazol-2-yl)phenyl)-N-(3-fluoro-4-((2-methylmorpholino)methyl)phenyl)pyrimidin-2-amine]: the IC50 at HDAC6 was in the range of 1000 to 10000 nM.

Turning to `Cn1cc(CNCC2CCN(c3ncc(C(=O)NO)cn3)CC2)c2ccccc21` [Quisinostat, reference compound], half-maximal inhibition against HDAC10 (IC50) required 8.37 nM. With `CC1CN(c2ccc(Nc3nccc(-c4ccc(C(=O)NO)cc4)n3)cc2F)CCO1` (centres unmarked) [Compound I-11, 4-(2-((3-fluoro-4-(2-methylmorpholino)phenyl)amino)pyrimidin-4-yl)-N-hydroxybenzamide], the IC50 on HDAC6 is under 1000 nM.
